Literature values as cited in publication PMC5751249, “Anti-Diabetic Effect of Organo-Chalcogen (Sulfur and Selenium) Zinc Complexes with Hydroxy-Pyrone Derivatives on Leptin-Deficient Type 2 Diabetes Model ob/ob Mice” (International Journal of Molecular Sciences, 2017).

Tests used:
[1] = system: Isolated male Wistar rat epididymal adipocytes; set-up: method as in PMID 29843022; details: 20 μM Zn complex, means ± SDs, three runs; cited from earlier work
[2] = system: Isolated male Wistar rat epididymal adipocytes; set-up: method as in PMID 29843022; details: adrenaline-stimulated, means ± SDs, three runs, read-out: IC50 of free fatty acid release; cited from earlier work

O.O.O.O.O.O.O.O=S(=O)([O-])[O-].[Zn+2] [ZnSO4, Zinc sulfate heptahydrate, reference compound]
Glucose Uptake [1]: none
IC50 [2]: 585 ± 305 µM
